Test results as given in US12187773B2, “Modified GIP peptide analogues” (Antag Therapeutics ApS, priority 2018, dated 2025).
*1 amine or outer side, *2 acyl side, *3 side chain or, on linkers, in order; H or OH if unused. Where a SMILES comes first, the peptide text is derived from it. Side-chain parts run from the residue outwards. The star is where a group is joined. C16 diacid = O=C(O)CCCCCCCCCCCCCCC(=O)*; γGlu = O=C(O)[C@H](CCC(=O)[*:2])N[*:1]; AEEA = NCCOCCOCC(=O)O

How the values were obtained:
Format in all cases: cell-based
[1] = target: T1, human GIP receptor (Homo sapiens, UniProt P48546); experiment: cAMP agonism (CisBio cAMP Dynamic 2 HTRF assay); conditions: HEK293, read-out: cAMP agonism, % Efficacy, Table 1C, HEK-293 cells
T1 sequence (P48546 22-466): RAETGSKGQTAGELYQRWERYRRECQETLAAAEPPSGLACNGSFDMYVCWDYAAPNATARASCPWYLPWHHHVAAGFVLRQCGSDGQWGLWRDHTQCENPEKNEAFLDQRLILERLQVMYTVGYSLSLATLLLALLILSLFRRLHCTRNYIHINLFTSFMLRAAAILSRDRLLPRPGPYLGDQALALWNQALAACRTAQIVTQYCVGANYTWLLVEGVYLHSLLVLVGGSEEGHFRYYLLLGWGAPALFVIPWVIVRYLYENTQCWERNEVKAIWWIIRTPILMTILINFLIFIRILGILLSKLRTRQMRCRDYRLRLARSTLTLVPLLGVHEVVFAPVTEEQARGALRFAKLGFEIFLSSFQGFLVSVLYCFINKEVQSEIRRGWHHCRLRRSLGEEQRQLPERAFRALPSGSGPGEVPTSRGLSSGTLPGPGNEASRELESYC
Experimental: To test for agonistic properties at the GIP receptor, compounds were diluted and added to cells as described above and incubated for 30 min at 37° C. The resulting increase in intracellular cAMP was determined using the CisBio cAMP Dynamic 2 HTRF Assay Kit as described above.

[2] = target: T1, human GIP receptor; experiment: cAMP antagonism (CisBio cAMP Dynamic 2 HTRF assay); design: pCMV-Script vector; conditions: Table 1C, CisBio, HEK-293 cells; for IC50: cAMP antagonism, nM (IC50), agonist GIP1-42 at EC50
Summary of the method: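 Four-parameter fits of cAMP dose-response gave pIC50. cAMP fall was quantified by HTRF competition, ratio 665/620 nm after 60 min at room temperature, against a cAMP standard curve.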

[3] = target: T1, human GIP receptor; experiment: cAMP accumulation, antagonism (DiscoveRx HitHunter cAMP XS assay); design: host or cells: COS-7 (transient, calcium phosphate; pCMV-Script vector); conditions: Table 1B, DiscoveRx; for cAMP antagonism, % inhib: COS-7 cells, % inhibition of Emax; for IC50: cAMP antagonism, nM (IC50), transiently transfected COS-7 cells
Summary of the method: (§1)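 cAMP accumulation measured by HitHunter cAMP XS in COS-7 cells transiently expressing human GIP receptor, after 30 min in HBS with 1 mM IBMX at 37 °C. Antagonists preincubated 10 min before GIP giving 50-80% of maximum, then 20 min more; agonist mode used 30 min ligand exposure.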

[4] = target: T1, human GIP receptor; experiment: cAMP accumulation, agonism (DiscoveRx HitHunter cAMP XS assay); design: host or cells: COS-7 (transient, calcium phosphate; pCMV-Script vector); conditions: Table 1B; DiscoveRx; COS-7 cells
Summary of the method: as §1

CC[C@H](C)[C@H](NC(=O)[C@H](CO)NC(=O)[C@H](Cc1ccc(O)cc1)NC(=O)[C@H](CC(=O)O)NC(=O)[C@H](CO)NC(=O)[C@@H](NC(=O)[C@H](Cc1ccccc1)NC(=O)[C@@H](NC(=O)CNC(=O)[C@@H]1CCCN1)[C@@H](C)O)[C@@H](C)CC)C(=O)N[C@@H](C)C(=O)N[C@@H](CCSC)C(=O)N[C@@H](CC(=O)O)C(=O)N[C@@H](CCCNC(=N)N)C(=O)N[C@H](C(=O)N[C@@H](CCCCNC(=O)CC[C@H](NC(=O)CCCCCCCCCCCCCCC(=O)O)C(=O)O)C(=O)N[C@@H](CCC(N)=O)C(=O)N[C@@H](CCC(N)=O)C(=O)N[C@@H](CC(=O)O)C(=O)N[C@@H](Cc1ccccc1)C(=O)N[C@H](C(=O)N[C@@H](CC(N)=O)C(=O)N[C@@H](Cc1c[nH]c2ccccc12)C(=O)N[C@@H](CC(C)C)C(=O)N[C@@H](CC(C)C)C(=O)N[C@@H](C)C(=O)N[C@@H](CCC(N)=O)C(=O)N[C@@H](CCCNC(=N)N)C(N)=O)C(C)C)[C@@H](C)CC [AT506] (HELM PEPTIDE1{P.G.T.F.I.S.D.Y.S.I.A.M.D.R.I.K.Q.Q.D.F.V.N.W.L.L.A.Q.R.[am]}|PEPTIDE2{[O=C(O)CCCCCCCCCCCCCCC(=O)[*:2]].[gGlu]}$PEPTIDE1,PEPTIDE2,16:R3-2:R2$$$V2.0; N-terminus assumed)
Emax [1]: 5%
cAMP antagonism, % inhib [2]: 78%
cAMP antagonism, % inhib [3]: 90%
IC50 [3]: 91 nM
cAMP agonism, Emax [4]: No Agonism

CC[C@H](C)[C@H](NC(=O)[C@H](CO)NC(=O)[C@H](Cc1ccc(O)cc1)NC(=O)[C@H](CC(=O)O)NC(=O)[C@H](CO)NC(=O)[C@@H](NC(=O)[C@H](Cc1ccccc1)NC(=O)[C@@H](NC(=O)CNC(=O)CN)[C@@H](C)O)[C@@H](C)CC)C(=O)N[C@@H](C)C(=O)N[C@@H](CCSC)C(=O)N[C@@H](CC(=O)O)C(=O)N[C@@H](CCCNC(=N)N)C(=O)N[C@H](C(=O)N[C@@H](CCCCNC(=O)COCCOCCNC(=O)CC[C@H](NC(=O)CCCCCCCCCCCCCCC(=O)O)C(=O)O)C(=O)N[C@@H](CCC(N)=O)C(=O)N[C@@H](CCC(N)=O)C(=O)N[C@@H](CC(=O)O)C(=O)N[C@@H](Cc1ccccc1)C(=O)N[C@H](C(=O)N[C@@H](CC(N)=O)C(=O)N[C@@H](Cc1c[nH]c2ccccc12)C(=O)N[C@@H](CC(C)C)C(=O)N[C@@H](CC(C)C)C(=O)N[C@@H](C)C(=O)N[C@@H](CCC(N)=O)C(=O)N[C@@H](CCCNC(=N)N)C(N)=O)C(C)C)[C@@H](C)CC [AT508] (HELM PEPTIDE1{G.G.T.F.I.S.D.Y.S.I.A.M.D.R.I.K.Q.Q.D.F.V.N.W.L.L.A.Q.R.[am]}|PEPTIDE2{[O=C(O)CCCCCCCCCCCCCCC(=O)[*:2]].[gGlu].[O=C(COCCOCCN[*:1])[*:2]]}$PEPTIDE1,PEPTIDE2,16:R3-3:R2$$$V2.0; N-terminus assumed)
Emax [1]: 0%
cAMP antagonism, % inhib [2]: 89%
cAMP antagonism, % inhib [3]: 100%
IC50 [3]: 23 nM
cAMP agonism, Emax [4]: No Agonism

CC[C@H](C)[C@H](NC(=O)[C@H](CO)NC(=O)[C@H](Cc1ccc(O)cc1)NC(=O)[C@H](CC(=O)O)NC(=O)[C@H](CO)NC(=O)[C@@H](NC(=O)[C@H](Cc1ccccc1)NC(=O)[C@@H](NC(=O)CNC(=O)[C@@H](N)CO)[C@@H](C)O)[C@@H](C)CC)C(=O)N[C@@H](C)C(=O)N[C@@H](CCSC)C(=O)N[C@@H](CC(=O)O)C(=O)N[C@@H](CCCNC(=N)N)C(=O)N[C@H](C(=O)N[C@@H](CCCCNC(=O)COCCOCCNC(=O)CC[C@H](NC(=O)CCCCCCCCCCCCCCC(=O)O)C(=O)O)C(=O)N[C@@H](CCC(N)=O)C(=O)N[C@@H](CCC(N)=O)C(=O)N[C@@H](CC(=O)O)C(=O)N[C@@H](Cc1ccccc1)C(=O)N[C@H](C(=O)N[C@@H](CC(N)=O)C(=O)N[C@@H](Cc1c[nH]c2ccccc12)C(=O)N[C@@H](CC(C)C)C(=O)N[C@@H](CC(C)C)C(=O)N[C@@H](C)C(=O)N[C@@H](CCC(N)=O)C(=O)N[C@@H](CCCNC(=N)N)C(N)=O)C(C)C)[C@@H](C)CC [AT510] (HELM PEPTIDE1{S.G.T.F.I.S.D.Y.S.I.A.M.D.R.I.K.Q.Q.D.F.V.N.W.L.L.A.Q.R.[am]}|PEPTIDE2{[O=C(O)CCCCCCCCCCCCCCC(=O)[*:2]].[gGlu].[O=C(COCCOCCN[*:1])[*:2]]}$PEPTIDE1,PEPTIDE2,16:R3-3:R2$$$V2.0; N-terminus assumed)
Emax [1]: 2%
cAMP antagonism, % inhib [2]: 87%
IC50 [2]: 58.4 nM
cAMP antagonism, % inhib [3]: 100%
cAMP agonism, Emax [4]: No Agonism

CC[C@H](C)[C@H](NC(=O)[C@H](CO)NC(=O)[C@H](Cc1ccc(O)cc1)NC(=O)[C@H](CC(=O)O)NC(=O)[C@H](CO)NC(=O)[C@@H](NC(=O)[C@H](Cc1ccccc1)NC(=O)[C@@H](NC(=O)CNC(=O)[C@@H]1CCCN1)[C@@H](C)O)[C@@H](C)CC)C(=O)N[C@@H](C)C(=O)N[C@@H](CCSC)C(=O)N[C@@H](CC(=O)O)C(=O)N[C@@H](CCCNC(=N)N)C(=O)N[C@H](C(=O)N[C@@H](CCCCNC(=O)COCCOCCNC(=O)CC[C@H](NC(=O)CCCCCCCCCCCCCCC(=O)O)C(=O)O)C(=O)N[C@@H](CCC(N)=O)C(=O)N[C@@H](CCC(N)=O)C(=O)N[C@@H](CC(=O)O)C(=O)N[C@@H](Cc1ccccc1)C(=O)N[C@H](C(=O)N[C@@H](CC(N)=O)C(=O)N[C@@H](Cc1c[nH]c2ccccc12)C(=O)N[C@@H](CC(C)C)C(=O)N[C@@H](CC(C)C)C(=O)N[C@@H](C)C(=O)N[C@@H](CCC(N)=O)C(=O)N[C@@H](CCCNC(=N)N)C(N)=O)C(C)C)[C@@H](C)CC [AT512] (HELM PEPTIDE1{P.G.T.F.I.S.D.Y.S.I.A.M.D.R.I.K.Q.Q.D.F.V.N.W.L.L.A.Q.R.[am]}|PEPTIDE2{[O=C(O)CCCCCCCCCCCCCCC(=O)[*:2]].[gGlu].[O=C(COCCOCCN[*:1])[*:2]]}$PEPTIDE1,PEPTIDE2,16:R3-3:R2$$$V2.0; N-terminus assumed)
Emax [1]: 0%
cAMP antagonism, % inhib [2]: 73%
IC50 [2]: 79.4 nM
cAMP antagonism, % inhib [3]: 80%
cAMP agonism, Emax [4]: No Agonism

CC[C@H](C)[C@H](NC(=O)[C@H](CO)NC(=O)[C@H](Cc1ccc(O)cc1)NC(=O)[C@H](CC(=O)O)NC(=O)[C@H](CO)NC(=O)[C@@H](NC(=O)[C@H](Cc1ccccc1)NC(=O)[C@@H](NC(=O)CNC(=O)CN)[C@@H](C)O)[C@@H](C)CC)C(=O)N[C@@H](C)C(=O)N[C@@H](CCSC)C(=O)N[C@@H](CC(=O)O)C(=O)N[C@@H](CCCNC(=N)N)C(=O)N[C@H](C(=O)N[C@@H](CCCCNC(=O)COCCOCCNC(=O)COCCOCCNC(=O)CC[C@H](NC(=O)CCCCCCCCCCCCCCC(=O)O)C(=O)O)C(=O)N[C@@H](CCC(N)=O)C(=O)N[C@@H](CCC(N)=O)C(=O)N[C@@H](CC(=O)O)C(=O)N[C@@H](Cc1ccccc1)C(=O)N[C@H](C(=O)N[C@@H](CC(N)=O)C(=O)N[C@@H](Cc1c[nH]c2ccccc12)C(=O)N[C@@H](CC(C)C)C(=O)N[C@@H](CC(C)C)C(=O)N[C@@H](C)C(=O)N[C@@H](CCC(N)=O)C(=O)N[C@@H](CCCNC(=N)N)C(N)=O)C(C)C)[C@@H](C)CC [AT514] (H-GGTFISDYSIAMDRIK([AEEA-AEEA-γGlu-C16 diacid])QQDFVNWLLAQR-NH2; N-terminus assumed)
Emax [1]: 0%
cAMP antagonism, % inhib [2]: 86%
IC50 [2]: 31.6 nM
cAMP antagonism, % inhib [3]: 80%
cAMP agonism, Emax [4]: No Agonism
